The supplement of paper PMC10307832

Legend:
Test in all cases: relative viability (nuclei count vs DMSO), 5 days (fraction); higher = more cells survive
[1] = compound: N#CC1(c2ccc(NC(=O)c3cccnc3NCc3ccncc3)cc2)CCCC1 [Apatinib] + CC1(C)CCC(c2ccc(Cl)cc2)=C(CN2CCN(c3ccc(C(=O)NS(=O)(=O)c4ccc(N[C@H](CCN5CCOCC5)CSc5ccccc5)c(S(=O)(=O)C(F)(F)F)c4)cc3)CC2)C1 [Navitoclax] (partner 0.5 µM)
How it was run: (§1)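 The day after seeding in 1536-well plates, lung cancer cell lines were treated by pin tool with a single drug, or with a fixed anchor-drug dose together with five library-drug doses (not always all listed) in √10 steps. After 5 days, a combined fix-and-stain solution (final 0.05% Triton X-100, 1% formaldehyde, 1 ug/ml Hoechst) was added. Nuclei counted on 4× images gave relative viability as treated counts over vehicle counts, reported as the median of duplicate plates.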

[2] = compound: CN(C)C(=N)NC(=N)N [Metformin] + N=C(N)NC(=N)NCCc1ccccc1 [Phenformin] (partner 250 µM)
How it was run: as §1

[3] = compound: CN(C)C(=N)NC(=N)N [Metformin] + CC(=O)Nc1cccc(-n2c(=O)n(C3CC3)c(=O)c3c(Nc4ccc(I)cc4F)n(C)c(=O)c(C)c32)c1 [Trametinib] (partner 0.02 µM)
How it was run: as §1

[4] = compound: CN(C)C(=N)NC(=N)N [Metformin] + Nc1ncn([C@H]2C[C@H](O)[C@@H](CO)O2)c(=O)n1 [Decitabine] (partner 2 µM)
How it was run: as §1

Cell Line | relative viability ([1]; first compound 0.08 µM) | relative viability ([1]; first compound 0.253 µM) | relative viability ([1]; first compound 0.8 µM) | relative viability ([1]; first compound 2.53 µM) | relative viability ([1]; first compound 8 µM) | relative viability ([2]; first compound 10 µM) | relative viability ([2]; first compound 31.62 µM) | relative viability ([2]; first compound 100 µM) | relative viability ([2]; first compound 316.23 µM) | relative viability ([2]; first compound 1000 µM) | relative viability ([3]; first compound 10 µM) | relative viability ([3]; first compound 31.62 µM) | relative viability ([3]; first compound 100 µM) | relative viability ([3]; first compound 316.23 µM) | relative viability ([3]; first compound 1000 µM) | relative viability ([4]; first compound 10 µM) | relative viability ([4]; first compound 31.62 µM) | relative viability ([4]; first compound 100 µM) | relative viability ([4]; first compound 316.23 µM) | relative viability ([4]; first compound 1000 µM)
CAL-12T | 1.26 | 1.23 | 1.1 | 1.17 | 1.03 | 0.635 | 0.61 | 0.634 | 0.555 | 0.604 | 0.357 | 0.443 | 0.404 | 0.432 | 0.452 |  |  |  |  | 
IA-LM | 0.947 | 0.709 | 0.633 | 0.352 | 0.208 |  |  |  |  |  |  |  |  |  |  |  |  |  |  | 
NCI-H1703 | 0.996 | 0.731 | 0.357 | 0.188 | 0.205 |  |  |  |  |  |  |  |  |  |  |  |  |  |  | 
BEN | 0.0553 | 0.0606 | 0.0462 | 0.0661 | 0.0637 | 0.295 | 0.292 | 0.297 | 0.27 | 0.252 | 1.25 | 1.5 | 1.43 | 1.13 | 1.21 | 0.768 | 0.777 | 0.646 | 0.661 | 0.752
EMC-BAC-2 | 1.2 | 1.13 | 1.14 | 1.07 | 0.974 | 0.592 | 0.519 | 0.506 | 0.499 | 0.651 | 0.751 | 0.889 |  | 0.73 | 0.829 | 0.844 | 1.02 |  | 0.855 | 0.861
NCI-H1355 | 0.944 | 0.929 | 0.848 | 0.815 | 0.65 | 0.472 | 0.412 | 0.474 | 0.432 | 0.47 | 0.416 | 0.356 | 0.395 | 0.474 | 0.427 | 0.402 | 0.285 | 0.332 | 0.355 | 0.372
SW 900 |  |  |  |  |  | 0.805 | 0.736 | 0.665 | 0.539 | 0.862 | 1.09 | 1.07 |  | 0.825 | 1.2 | 0.41 | 0.389 |  | 0.412 | 0.492
A-427 | 0.929 | 0.911 | 0.934 | 0.853 | 0.478 | 0.32 | 0.376 | 0.325 | 0.284 | 0.287 | 0.719 | 0.868 | 0.725 | 0.692 | 0.54 | 0.524 | 0.587 | 0.571 | 0.521 | 0.574
NCI-H1793 | 0.343 | 0.712 | 0.441 | 0.29 | 0.283 | 0.431 |  | 0.403 | 0.366 | 0.562 | 0.432 | 0.454 | 0.413 | 0.45 | 0.507 | 0.503 | 0.439 | 0.458 | 0.449 | 0.621
